# Assay results as given in PubChem BioAssay (NCI).
#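 The concentration for 50% growth inhibition is given as GI50. TGI: concentration producing complete growth inhibition.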
# Legend:
# Assay in all cases: inhibition of tumour cell growth, NCI panel, 384-well format
# BT-549 breast = test system: BT-549 breast
# MDA-MB-468 breast = test system: MDA-MB-468 breast
# SK-OV-3 ovarian = test system: SK-OV-3 ovarian
# LOX IMVI melanoma = test system: LOX IMVI melanoma
# SF-268 CNS = test system: SF-268 CNS
# HL-60(TB) leukemia = test system: HL-60(TB) leukemia
# NCI/ADR-RES ovarian = test system: NCI/ADR-RES ovarian
# U251 glioblastoma = test system: U251 glioblastoma
# SK-MEL-5 melanoma = test system: SK-MEL-5 melanoma
# SK-MEL-2 melanoma = test system: SK-MEL-2 melanoma
# PC-3 prostate = test system: PC-3 prostate
# T-47D breast = test system: T-47D breast
# SNB-19 CNS = test system: SNB-19 CNS
# SR leukemia = test system: SR leukemia
# RXF 393 renal = test system: RXF 393 renal
# UACC-257 melanoma = test system: UACC-257 melanoma
# CAKI-1 renal = test system: CAKI-1 renal
# HCT-15 colon = test system: HCT-15 colon
# HT29 colon = test system: HT29 colon
# SF-539 CNS = test system: SF-539 CNS
# OVCAR-3 ovarian = test system: OVCAR-3 ovarian
# OVCAR-5 ovarian = test system: OVCAR-5 ovarian
# IGROV1 ovarian = test system: IGROV1 ovarian
# HCT-116 colon = test system: HCT-116 colon
# NCI-H522 lung = test system: NCI-H522 lung
# OVCAR-4 ovarian = test system: OVCAR-4 ovarian
# RPMI-8226 leukemia = test system: RPMI-8226 leukemia
# MDA-MB-231 breast = test system: MDA-MB-231 breast
# NCI-H23 lung = test system: NCI-H23 lung
# OVCAR-8 ovarian = test system: OVCAR-8 ovarian
# A549 NSCLC = test system: A549 NSCLC
# MALME-3M melanoma = test system: MALME-3M melanoma
# UACC-62 melanoma = test system: UACC-62 melanoma
# SF-295 CNS = test system: SF-295 CNS
# MDA-MB-435 melanoma = test system: MDA-MB-435 melanoma
# MCF7 breast = test system: MCF7 breast
# COLO 205 colon = test system: COLO 205 colon
# SN12C renal = test system: SN12C renal
# ACHN renal = test system: ACHN renal
# NCI-H226 lung = test system: NCI-H226 lung
# 786-0 renal = test system: 786-0 renal
# TK-10 renal = test system: TK-10 renal
# SK-MEL-28 melanoma = test system: SK-MEL-28 melanoma
# HOP-62 NSCLC = test system: HOP-62 NSCLC
# A498 renal = test system: A498 renal
# DU-145 prostate = test system: DU-145 prostate
# HCC-2998 colon = test system: HCC-2998 colon
# KM12 colon = test system: KM12 colon
# UO-31 renal = test system: UO-31 renal
# HOP-92 NSCLC = test system: HOP-92 NSCLC
# NCI-H322M lung = test system: NCI-H322M lung
# NCI-H460 NSCLC = test system: NCI-H460 NSCLC
# M14 melanoma = test system: M14 melanoma
smiles,measurement,setting,value
Cc1cccc2c1NC(=O)[C@@H](NC(=O)[C@H](CCC(F)(F)F)[C@H](CCC(F)(F)F)C(N)=O)N=C2c1cccc(F)c1,GI50,BT-549 breast,14.7 µM
same,TGI,BT-549 breast,48.3 µM
same,GI50,MDA-MB-468 breast,13.9 µM
same,TGI,MDA-MB-468 breast,92 µM
same,GI50,SK-OV-3 ovarian,19.3 µM
same,TGI,SK-OV-3 ovarian,46.8 µM
same,GI50,LOX IMVI melanoma,> 100 µM
same,TGI,LOX IMVI melanoma,> 100 µM
same,GI50,SF-268 CNS,17 µM
same,TGI,SF-268 CNS,41.3 µM
same,GI50,HL-60(TB) leukemia,1.61 µM
same,TGI,HL-60(TB) leukemia,3.05 µM
same,GI50,NCI/ADR-RES ovarian,56.3 µM
same,TGI,NCI/ADR-RES ovarian,> 100 µM
same,GI50,U251 glioblastoma,13.7 µM
same,TGI,U251 glioblastoma,72.9 µM
same,GI50,SK-MEL-5 melanoma,25.3 µM
same,TGI,SK-MEL-5 melanoma,> 100 µM
same,GI50,SK-MEL-2 melanoma,16.9 µM
same,TGI,SK-MEL-2 melanoma,58.5 µM
same,GI50,PC-3 prostate,> 100 µM
same,TGI,PC-3 prostate,> 100 µM
same,GI50,T-47D breast,25.2 µM
same,TGI,T-47D breast,> 100 µM
same,GI50,SNB-19 CNS,37.7 µM
same,TGI,SNB-19 CNS,> 100 µM
same,GI50,SR leukemia,1.25 µM
same,TGI,SR leukemia,2.54 µM
same,GI50,RXF 393 renal,5.72 µM
same,TGI,RXF 393 renal,22.9 µM
same,GI50,UACC-257 melanoma,16.3 µM
same,TGI,UACC-257 melanoma,55 µM
same,GI50,CAKI-1 renal,13.3 µM
same,TGI,CAKI-1 renal,26.8 µM
same,GI50,HCT-15 colon,> 100 µM
same,TGI,HCT-15 colon,> 100 µM
same,GI50,HT29 colon,> 100 µM
same,TGI,HT29 colon,> 100 µM
same,GI50,SF-539 CNS,16.3 µM
same,TGI,SF-539 CNS,34.1 µM
same,GI50,OVCAR-3 ovarian,20 µM
same,TGI,OVCAR-3 ovarian,> 100 µM
same,GI50,OVCAR-5 ovarian,37.7 µM
same,TGI,OVCAR-5 ovarian,> 100 µM
same,GI50,IGROV1 ovarian,34.1 µM
same,TGI,IGROV1 ovarian,> 100 µM
same,GI50,HCT-116 colon,20.1 µM
same,TGI,HCT-116 colon,> 100 µM
same,GI50,NCI-H522 lung,8.01 µM
same,TGI,NCI-H522 lung,26.1 µM
same,GI50,OVCAR-4 ovarian,18 µM
same,TGI,OVCAR-4 ovarian,40.8 µM
same,GI50,RPMI-8226 leukemia,5.27 µM
same,TGI,RPMI-8226 leukemia,> 100 µM
same,GI50,MDA-MB-231 breast,15.7 µM
same,TGI,MDA-MB-231 breast,92.6 µM
same,GI50,NCI-H23 lung,26.8 µM
same,TGI,NCI-H23 lung,82 µM
same,GI50,OVCAR-8 ovarian,21.5 µM
same,TGI,OVCAR-8 ovarian,62.5 µM
same,GI50,A549 NSCLC,31.6 µM
same,TGI,A549 NSCLC,> 100 µM
same,GI50,MALME-3M melanoma,19.2 µM
same,TGI,MALME-3M melanoma,69.7 µM
same,GI50,UACC-62 melanoma,14.9 µM
same,TGI,UACC-62 melanoma,> 100 µM
same,GI50,SF-295 CNS,24.3 µM
same,TGI,SF-295 CNS,60 µM
same,GI50,MDA-MB-435 melanoma,> 100 µM
same,TGI,MDA-MB-435 melanoma,> 100 µM
same,GI50,MCF7 breast,12 µM
same,TGI,MCF7 breast,> 100 µM
same,GI50,COLO 205 colon,37.5 µM
same,TGI,COLO 205 colon,> 100 µM
same,GI50,SN12C renal,70.1 µM
same,TGI,SN12C renal,> 100 µM
same,GI50,ACHN renal,17.9 µM
same,TGI,ACHN renal,64.5 µM
same,GI50,NCI-H226 lung,17.7 µM
same,TGI,NCI-H226 lung,75.1 µM
same,GI50,786-0 renal,22.2 µM
same,TGI,786-0 renal,> 100 µM
same,GI50,TK-10 renal,38.4 µM
same,TGI,TK-10 renal,> 100 µM
same,GI50,SK-MEL-28 melanoma,22.5 µM
same,TGI,SK-MEL-28 melanoma,68 µM
same,GI50,HOP-62 NSCLC,20.4 µM
same,TGI,HOP-62 NSCLC,49.6 µM
same,GI50,A498 renal,7.76 µM
same,TGI,A498 renal,51.6 µM
same,GI50,DU-145 prostate,24.6 µM
same,TGI,DU-145 prostate,> 100 µM
same,GI50,HCC-2998 colon,25.9 µM
same,TGI,HCC-2998 colon,> 100 µM
same,GI50,KM12 colon,> 100 µM
same,TGI,KM12 colon,> 100 µM
same,GI50,UO-31 renal,25.6 µM
same,TGI,UO-31 renal,69.5 µM
same,GI50,HOP-92 NSCLC,16.2 µM
same,TGI,HOP-92 NSCLC,49.6 µM
same,GI50,NCI-H322M lung,46.8 µM
same,TGI,NCI-H322M lung,> 100 µM
same,GI50,NCI-H460 NSCLC,4.08 µM
same,TGI,NCI-H460 NSCLC,> 100 µM
same,GI50,M14 melanoma,19.7 µM
same,TGI,M14 melanoma,> 100 µM
